Laboratory results: PubChem BioAssay AID248 (DTP/NCI, 2004)
Toxic doses and inconclusive results are not listed. Cut-off read from the data, not from the text of the source: active = T/C of 150% or more; inactive = T/C below 125%. Peptide text beside a SMILES is read from it.

Tested on: L1210 leukemia ip in BDF1 mice, survival T/C
Assay: NCI In Vivo Anticancer Drug Screen. Data for tumor model L1210 Leukemia (intraperitoneal) in B6D2F1 (BDF1) mice
Settings: endpoint: mean survival time, higher = longer survival
How it was run: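 In this screen, tumor-bearing mice given compound are compared to those given vehicle, and their survival values are reported as a treated-to-control quotient.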

[1] = dose: 100.0 mg/kg/injection, schedule: Q04DX003 (ip), vehicle: saline
[2] = dose: 200.0 mg/kg/injection, schedule: Q04DX003 (ip), vehicle: saline
[3] = dose: 400.0 mg/kg/injection, schedule: Q04DX003 (ip), vehicle: saline

Measured: T/C

Nc1csc(N)n1
inactive: dose: 75.0 mg/kg/injection, schedule: Q04DX003 (ip), vehicle: saline 107 % of control | [1] 97 % of control | dose: 150.0 mg/kg/injection, schedule: Q04DX003 (ip), vehicle: saline 105 % of control | [2] 96 % of control | dose: 300.0 mg/kg/injection, schedule: Q04DX003 (ip), vehicle: saline 94 % of control | [3] 103 % of control

c1ccc2sc(SN3CCCCC3)nc2c1
inactive: dose: 100.0 mg/kg/injection, schedule: Q01DX001 (ip), vehicle: Klucel (hydroxypropylcellulose) (HPC) 103 % of control | dose: 200.0 mg/kg/injection, schedule: Q01DX001 (ip), vehicle: Klucel (hydroxypropylcellulose) (HPC) 97 % of control | dose: 400.0 mg/kg/injection, schedule: Q01DX001 (ip), vehicle: Klucel (hydroxypropylcellulose) (HPC) 94 % of control

Cc1ccc(S(=O)(=O)Nc2ccccc2-c2nc3ccc(C)cc3c(=O)o2)cc1
inactive: dose: 100.0 mg/kg/injection, schedule: Q04DX003 (ip), vehicle: saline with Tween-80 88 % of control | dose: 200.0 mg/kg/injection, schedule: Q04DX003 (ip), vehicle: saline with Tween-80 94 % of control | dose: 400.0 mg/kg/injection, schedule: Q04DX003 (ip), vehicle: saline with Tween-80 116 % of control

O=c1[nH]cnc2ncnn12
inactive: dose: 100.0 mg/kg/injection, schedule: Q01DX001 (ip), vehicle: alkali diluted with saline 104 % of control | dose: 200.0 mg/kg/injection, schedule: Q01DX001 (ip), vehicle: alkali diluted with saline 109 % of control | dose: 400.0 mg/kg/injection, schedule: Q01DX001 (ip), vehicle: alkali diluted with saline 104 % of control

CSCCC(NC(=O)C(N)C(C)C)C(=O)O (stereo not drawn) (H-Val-Met-OH; configuration not given here)
inactive: [1] 100 % of control | [2] 108 % of control | [3] 103 % of control

O=C(O)c1ccccc1Cl
inactive: dose: 100.0 mg/kg/injection, schedule: Q04DX003 (ip), vehicle: Klucel (hydroxypropylcellulose) (HPC) 103 % of control | dose: 200.0 mg/kg/injection, schedule: Q04DX003 (ip), vehicle: Klucel (hydroxypropylcellulose) (HPC) 108 % of control | dose: 400.0 mg/kg/injection, schedule: Q04DX003 (ip), vehicle: Klucel (hydroxypropylcellulose) (HPC) 102 % of control

O=S(=O)(O)c1cccc2cccc(Cl)c12
inactive: dose: 100.0 mg/kg/injection, schedule: Q01DX009 (ip), vehicle: saline with Tween-80 99 % of control | dose: 100.0 mg/kg/injection, schedule: Q01DX009 (ip), vehicle: saline 95 % of control | [1] 109 % of control | dose: 200.0 mg/kg/injection, schedule: Q01DX009 (ip), vehicle: saline with Tween-80 94 % of control | dose: 200.0 mg/kg/injection, schedule: Q01DX009 (ip), vehicle: saline 97 % of control | [2] 105 % of control | dose: 400.0 mg/kg/injection, schedule: Q01DX009 (ip), vehicle: saline with Tween-80 96 % of control | dose: 400.0 mg/kg/injection, schedule: Q01DX009 (ip), vehicle: saline 103 % of control | [3] 115 % of control

CCCCCCOC(=O)Nc1ccc(S(=O)(=O)NC2CCCCC2)cc1
inactive: dose: 100.0 mg/kg/injection, schedule: Q01DX001 (ip), vehicle: saline 94 % of control | dose: 200.0 mg/kg/injection, schedule: Q01DX001 (ip), vehicle: saline 90 % of control | dose: 400.0 mg/kg/injection, schedule: Q01DX001 (ip), vehicle: saline 95 % of control
